Assay results as given in patent US9657022B2, “7-OXO-1,6-diazabicyclo[3.2.1]octane derivatives and their use as antibacterial agents” (WOCKHARDT LIMITED, priority 2014, dated 2017).
Converted amounts (≈) assume the structure as drawn. “And” between values parts separate entries of the source, which are not always exact repeats. Equal entries are not always repeated. Where two headings read alike, the source gives them in different places.

What was measured:
[1] = molecular target: T1, Class A beta-lactamase SHV 18 (K. pneumoniae ATCC 700603) (Klebsiella pneumoniae, UniProt P0AD64, E235K/G234A/I4F/R39S); test: Beta-lactamase enzyme inhibition (Nitrocefin, crude enzyme); format: biochemical; settings: K. pneumoniae ATCC 700603 (SHV 18)
T1 sequence (P0AD64 1-286 I4F/R39S/G234A/E235K): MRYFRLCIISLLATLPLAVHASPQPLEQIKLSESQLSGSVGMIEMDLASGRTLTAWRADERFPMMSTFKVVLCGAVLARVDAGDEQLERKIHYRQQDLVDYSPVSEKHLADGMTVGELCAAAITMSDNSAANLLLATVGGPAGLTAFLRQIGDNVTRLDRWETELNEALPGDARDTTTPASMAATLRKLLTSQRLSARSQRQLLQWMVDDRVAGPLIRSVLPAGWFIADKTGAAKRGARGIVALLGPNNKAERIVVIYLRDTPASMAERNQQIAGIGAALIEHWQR
Method: (§1) Absorbance was measured at 485 nm by UV-spectrophotometer. The IC50 was calculated by plotting absorbance against concentration through Sigmoidal dose response curve using Graph Pad software.
(§2) The enzyme inhibition was expressed as IC50.

[2] = molecular target: T2, Class C beta-lactamase P99 (E. cloacae J137) (Enterobacter cloacae, UniProt P05364); test: as above; format: biochemical
T2 construct: preincubated mixture of crude enzyme and the compounds; endogenous in cells; host or cells: E. cloacae J137
T2 sequence (P05364 21-381): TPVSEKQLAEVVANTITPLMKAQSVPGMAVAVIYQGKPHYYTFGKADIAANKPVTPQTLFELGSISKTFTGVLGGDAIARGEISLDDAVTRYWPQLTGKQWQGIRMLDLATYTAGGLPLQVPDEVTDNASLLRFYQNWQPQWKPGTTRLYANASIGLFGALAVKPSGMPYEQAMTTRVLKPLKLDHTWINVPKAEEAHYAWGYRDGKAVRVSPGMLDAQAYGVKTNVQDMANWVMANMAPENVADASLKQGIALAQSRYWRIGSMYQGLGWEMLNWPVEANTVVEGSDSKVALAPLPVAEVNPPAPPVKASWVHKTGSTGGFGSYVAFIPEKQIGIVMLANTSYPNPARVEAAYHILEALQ
Method: as §1

[3] = molecular target: Class D beta-lactamase OXA 26 (A. baumannii NCTC 13303) (Acinetobacter baumannii, UniProt Q9F0V2); test: as above; format: biochemical
Class D beta-lactamase OXA 26 (A. baumannii NCTC 13303), sequence (Q9F0V2 entry or part of it): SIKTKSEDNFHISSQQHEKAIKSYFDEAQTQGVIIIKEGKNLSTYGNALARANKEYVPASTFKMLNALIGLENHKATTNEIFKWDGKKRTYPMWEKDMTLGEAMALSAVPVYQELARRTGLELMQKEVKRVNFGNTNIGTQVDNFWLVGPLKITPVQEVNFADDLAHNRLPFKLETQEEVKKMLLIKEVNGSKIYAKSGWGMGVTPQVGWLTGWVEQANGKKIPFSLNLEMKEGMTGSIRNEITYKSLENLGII
Method: as §1

E. coli M 49 = test: Antibacterial activity (MIC), agar dilution per CLSI; format: cell-based; settings: Escherichia coli, M49
Method: (§3) The biological activity of representative compounds according to the invention against various bacterial strains was investigated. In a typical study, overnight grown bacterial cultures were diluted appropriately and inoculated on the agar media containing doubling dilutions of the test compounds. Observations for growth or no growth was performed after 16-20 hours of incubation at 35±2° C. in the ambient air. The overall procedure was performed as per Clinical and Laboratory Standards Institute (CLSI) recommendations, (Clinical and Laboratory Standards Institute (CLSI), Performance Standards for Antimicrobial Susceptibility Testing, 20th Informational Supplement, M07-A9, Volume 32, No. 2, 2012). Molten Mueller Hinton Agar (BD, USA) containing serial dilutions of each antibacterial agent were poured on to the plates and allowed to solidify. Appropriate suspensions from the freshly grown cultures were prepared in normal saline so that about 10^4 CFU/spot of the organism was delivered on to the drug containing agar plates using automated multipoint inoculator (Mast, UK). The plates were incubated in Biochemical oxygen demand (BOD) incubator at 37° C. for 18 hours and then examined for growth.
(§4) Table 3 details the antibacterial activity of representative compound of Formula (I), (2S,5R)-sulfuric acid mono-{2-[N′-(2-(S)-pyrrolidin-2-yl-acetyl)-hydrazinocarbonyl]-7-oxo-1,6-diaza-bicyclo[3.2.1]oct-6-yl}ester (Compound of Example 1), against various Multi Drug Resistant (MDR) Gram-negative bacterial strains. The activities are expressed as Minimum Inhibitory Concentrations (MICs) (mcg/ml).

E. coli M 50 = test: as above; format: cell-based; settings: Escherichia coli, M50
Method: as §3, §4

P. aeruginosa 2779 = test: as above; format: cell-based; settings: Pseudomonas aeruginosa
Method: as §3, §4

P. aeruginosa R 20 = test: as above; format: cell-based; settings: Pseudomonas aeruginosa, R20
Method: as §3, §4

E. coli 7 MP = test: as above; format: cell-based; settings: Escherichia coli
Method: as §3, §4

E. coli NCTC 13352 = test: as above; format: cell-based; settings: Escherichia coli, NCTC13352
Method: as §3, §4

K. pneumoniae H 525 = test: as above; format: cell-based; settings: Klebsiella pneumoniae, H525
Method: as §3, §4

E. coli NCTC 13351 = test: as above; format: cell-based; settings: Escherichia coli, NCTC13351
Method: as §3, §4

E. cloacae M 20 = test: as above; format: cell-based; settings: Enterobacter cloacae, M20
Method: as §3, §4

K. pneumoniae S 21 = test: as above; format: cell-based; settings: Klebsiella pneumoniae, S21
Method: as §3, §4

C. frundaii 58 MP = test: as above; format: cell-based
Method: as §3, §4

P. aeruginosa PAO1 = test: as above; format: cell-based; settings: Pseudomonas aeruginosa
Method: as §3, §4

P. aeruginosa ATCC 27853 = test: as above; format: cell-based; settings: Pseudomonas aeruginosa, ATCC27853
Method: as §3, §4

[4] = test system: K. pneumoniae H521 (KPC, SHV, TEM); test: as above; format: cell-based; settings: Klebsiella pneumoniae
Method: as §3
(§5) The strains selected for study included E. coli NCTC 13353 producing CTX-M15 and OXA-1 beta-lactamase enzymes; K. pneumoniae H521 producing KPC, SHV, TEM beta-lactamase enzymes; and K. pneumoniae S48 producing NDM, SHV, TEM beta-lactamase enzymes. The activities are expressed as Minimum Inhibitory Concentrations (MICs) (mcg/ml).
(§6) The activities are expressed as Minimum Inhibitory Concentrations (MICs) (mcg/ml).

[5] = test system: E. coli NCTC 13353 (CTX-M15, OXA-1); test: as above; format: cell-based; settings: Escherichia coli, NCTC13353
Method: as §3, §5, §6

[6] = molecular target: T3, Class D beta-lactamase OXA 23 (A. baumannii NCTC 13301) (Acinetobacter baumannii, UniProt Q9L4P2); test: Beta-lactamase enzyme inhibition (Nitrocefin, crude enzyme); format: biochemical; settings: A. baumannii NCTC 13301 (OXA 23)
T3 construct: preincubated mixture of crude enzyme and the compounds; endogenous in cells; host or cells: A. baumannii NCTC 13301
T3 sequence (Q9L4P2 18-273): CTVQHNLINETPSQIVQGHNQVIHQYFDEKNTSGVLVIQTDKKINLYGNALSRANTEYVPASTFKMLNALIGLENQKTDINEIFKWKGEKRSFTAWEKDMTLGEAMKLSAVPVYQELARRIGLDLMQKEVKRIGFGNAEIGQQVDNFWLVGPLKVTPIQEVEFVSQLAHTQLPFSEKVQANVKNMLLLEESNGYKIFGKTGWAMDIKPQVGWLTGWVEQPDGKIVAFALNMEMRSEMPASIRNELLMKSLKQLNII
Method: as §1, §2

[7] = test system: Class C beta-lactamase CMY/DHA (E. coli M50); test: as above; format: biochemical
Method: as §1, §2

E. coli M50 = test: Zone of inhibition, agar well, with and without ceftazidime; format: cell-based; settings: for Diameter of Zone of Inhibition, Compound + Ceftazidime (10 μg/ml): E. coli M50; for zone of inhibition at 0.25 µg/disc / zone of inhibition at 0.5 µg/disc / zone of inhibition at 1 µg/disc: Escherichia coli, M50, read-out: Diameter of Zone of Inhibition, Compound
Method: (§7) In a typical experiment, two sets of plates containing growth media (Molten Mueller Hilton Agar) and bacterial strains were prepared. One set of plates was taken as control (without ceftazidime) and other set contained ceftazidime. The media was allowed to solidify and wells were punched later, into which varying concentrations of compounds according to the invention were poured. A two-fold serial dilution range of each of the compounds according to invention was prepared and 50 μl of each of the dilution was added into the punched well. The plates were then incubated at 37° C. for 18 hours in BOD incubator and diameters of zone of inhibition were measured after the completion of the incubation.
(§8) The Table 6 provides the antibacterial activity of the combination comprising compounds according to invention and ceftazidime. The compounds according to invention were tested at 0.12, 0.25, 0.5 and 1 μg/well.

E. coli NCTC 13353 = test: as above; format: cell-based; settings: for Diameter of Zone of Inhibition, Compound + Ceftazidime (10 μg/ml): E. coli NCTC 13353; for zone of inhibition at 0.25 µg/disc / zone of inhibition at 0.5 µg/disc / zone of inhibition at 1 µg/disc: Escherichia coli, NCTC13353, read-out: Diameter of Zone of Inhibition, Compound
Method: as §7, §8

[8] = test system: K. pneumoniae S48 (NDM, SHV, TEM); test: Antibacterial activity (MIC), agar dilution per CLSI; format: cell-based; settings: Klebsiella pneumoniae
Method: as §3, §5

[9] = Beta-lactamase enzyme inhibition IC50, Class D
[10] = Beta-lactamase enzyme inhibition IC50, Class A
[11] = compound 0.25 μg/well + Ceftazidime 10 μg/ml
[12] = compound 0.5 μg/well + Ceftazidime 10 μg/ml
[13] = compound 1 μg/well + Ceftazidime 10 μg/ml
[14] = compound […] + Ceftazidime 10 μg/ml

Row | SMILES | IC50 [6, 9] | IC50 [7] | IC50 [1, 10] | Diameter of Zone of Inhibition, Compound + Ceftazidime (10 μg/ml) (E. coli M50; [11]) | Diameter of Zone of Inhibition, Compound + Ceftazidime (10 μg/ml) (E. coli M50; [12]) | Diameter of Zone of Inhibition, Compound + Ceftazidime (10 μg/ml) (E. coli M50; [13]) | Diameter of Zone of Inhibition, Compound + Ceftazidime (10 μg/ml) (E. coli M50; [14]) | zone of inhibition at 0.25 µg/disc (E. coli M50) | zone of inhibition at 0.5 µg/disc (E. coli M50) | zone of inhibition at 1 µg/disc (E. coli M50) | Diameter of Zone of Inhibition, Compound + Ceftazidime (10 μg/ml) (E. coli NCTC 13353; [11]) | Diameter of Zone of Inhibition, Compound + Ceftazidime (10 μg/ml) (E. coli NCTC 13353; [12]) | Diameter of Zone of Inhibition, Compound + Ceftazidime (10 μg/ml) (E. coli NCTC 13353; [13]) | Diameter of Zone of Inhibition, Compound + Ceftazidime (10 μg/ml) (E. coli NCTC 13353; [14]) | zone of inhibition at 0.25 µg/disc (E. coli NCTC 13353) | zone of inhibition at 0.5 µg/disc (E. coli NCTC 13353) | zone of inhibition at 1 µg/disc (E. coli NCTC 13353) | MIC [4] | MIC [5] | MIC [8] | also measured
1 | NC(=O)[C@@H]1CC[C@@H]2CN1C(=O)N2OS(=O)(=O)O [Avibactam, avibactam, reference compound] |  |  |  |  |  |  |  |  |  |  |  |  |  |  |  |  |  |  |  |  | IC50 ([1]; Class A, read-out: Beta-lactamase enzyme inhibition IC50): 98 nM and 10 nM; IC50 [2]: 79 nM; IC50 ([3]; A. baumannii NCTC 13303 (OXA 26), read-out: Beta-lactamase enzyme inhibition IC50): 10.1 µM; MIC (E. coli M 49): 16 µg/mL (≈ 60.3 µM); MIC (E. coli M 50): > 64 µg/mL; MIC (P. aeruginosa 2779): > 64 µg/mL; MIC (P. aeruginosa R 20): > 64 µg/mL; MIC (E. coli 7 MP): > 64 µg/mL; MIC (E. coli NCTC 13352): > 64 µg/mL; MIC (K. pneumoniae H 525): 8 µg/mL (≈ 30.2 µM); MIC (E. coli NCTC 13351): > 64 µg/mL; MIC (E. cloacae M 20): > 64 µg/mL; MIC (K. pneumoniae S 21): 16 µg/mL (≈ 60.3 µM); MIC (C. frundaii 58 MP): > 64 µg/mL; MIC (P. aeruginosa PAO1): > 64 µg/mL; MIC (P. aeruginosa ATCC 27853): > 64 µg/mL; MIC ([4]; K. pneumoniae H521 (KPC, SHV, TEM), read-out: MIC): 16 µg/mL (≈ 60.3 µM); MIC ([5]; E. coli NCTC 13353 (CTX-M15, OXA-1), read-out: MIC): 16 µg/mL (≈ 60.3 µM)
2 | O=C(O)[C@H]1/C(=C/CO)O[C@@H]2CC(=O)N21 [Clavulanic acid, clavulanic acid, reference compound] | > 10 µM |  |  |  |  |  |  |  |  |  |  |  |  |  |  |  |  |  |  |  | IC50 ([3]; read-out: Beta-lactamase enzyme inhibition IC50, A. baumannii NCTC 13303 (OXA 26)): > 10 µM
3 | O=C(CC1CNC1)NNC(=O)[C@@H]1CC[C@@H]2CN1C(=O)N2OS(=O)(=O)O [Example 2, (2S,5R)-sulfuric acid mono-{2-[N′-(2-azetidin-3-yl-acetyl)-hydrazinocarbonyl]-7-oxo-1,6-diaza-bicyclo[3.2.1]oct-6-yl}ester] | 6.19 µM | 103 nM | 97 nM | 19 mm | 22 mm | 23.5 mm | 15 mm | 9 mm | 12 mm | 15 mm | 24 mm | 26 mm | 30 mm | 21 mm | 10 mm | 13 mm | 15 mm | 4 µg/mL (≈ 10.6 µM) | 1 µg/mL (≈ 2.65 µM) | 2 µg/mL (≈ 5.3 µM) | 
4 | O=C(C[C@@H]1CCCCN1)NNC(=O)[C@@H]1CC[C@@H]2CN1C(=O)N2OS(=O)(=O)O [Example 3, (2S,5R)-sulfuric acid mono-{2-[N′-(2-(S)-piperidin-2-yl-acetyl)-hydrazinocarbonyl]-7-oxo-1,6-diaza-bicyclo[3.2.1]oct-6-yl}ester] |  | 52 nM | 74 nM | 17.5 mm | 20 mm | 22.5 mm | 14.5 mm | 13 mm | 16 mm | 17 mm | 22 mm | 27 mm | 30 mm | 20 mm | 14 mm | 15 mm | 17 mm | 0.5 µg/mL (≈ 1.23 µM) | 0.25 µg/mL (≈ 0.617 µM) | 0.5 µg/mL (≈ 1.23 µM) | IC50 ([6]; Class D, read-out: Beta-lactamase enzyme inhibition IC50): 2.11 µM
